In the CheMixHub viscosity set:
Several values for one entry are separate records, joined by “and”; a condition that tells them apart may be missing. Equal entries are not always repeated.

Assay: xn = mol fraction of the nth substance listed

OCCCCO + O
viscosity
Details	298.15 K	303.15 K	308.15 K	313.15 K	318.15 K	323.15 K
101 kPa, x1 = 0.0099	–	0.933 mPa·s	0.836 mPa·s	0.755 mPa·s	0.687 mPa·s	0.63 mPa·s
101 kPa, x1 = 0.0201	–	1.09 mPa·s	0.971 mPa·s	0.871 mPa·s	0.788 mPa·s	0.718 mPa·s
101 kPa, x1 = 0.0299	–	1.256 mPa·s	–	0.989 mPa·s	0.89 mPa·s	0.806 mPa·s
101 kPa, x1 = 0.0399	–	1.429 mPa·s	1.256 mPa·s	1.113 mPa·s	0.998 mPa·s	0.899 mPa·s
101 kPa, x1 = 0.05	1.94 mPa·s	1.625 mPa·s	1.48 mPa·s and 1.424 mPa·s	1.258 mPa·s	1.14 mPa·s and 1.12 mPa·s	1.004 mPa·s
101 kPa, x1 = 0.0599	–	1.838 mPa·s	1.595 mPa·s	1.4 mPa·s	1.243 mPa·s	1.11 mPa·s
101 kPa, x1 = 0.0699	–	2.057 mPa·s	1.781 mPa·s	1.559 mPa·s	1.376 mPa·s	–
101 kPa, x1 = 0.075	2.65 mPa·s	–	1.93 mPa·s	–	1.44 mPa·s	–
101 kPa, x1 = 0.08	–	2.298 mPa·s	1.982 mPa·s	1.724 mPa·s	1.518 mPa·s	1.347 mPa·s
101 kPa, x1 = 0.0901	–	2.553 mPa·s	2.192 mPa·s	1.901 mPa·s	1.666 mPa·s	1.472 mPa·s
101 kPa, x1 = 0.1	3.397 mPa·s	2.818 mPa·s and 2.803 mPa·s	2.44 mPa·s and 2.404 mPa·s and 2.514 mPa·s	2.079 mPa·s	1.84 mPa·s and 1.817 mPa·s	1.602 mPa·s
101 kPa, x1 = 0.15	5.39 mPa·s	–	3.78 mPa·s	–	2.68 mPa·s	–
101 kPa, x1 = 0.2	7.88 mPa·s	–	5.24 mPa·s	–	3.72 mPa·s	–
101 kPa, x1 = 0.2001	9.496 mPa·s	7.867 mPa·s	–	–	–	–
101 kPa, x1 = 0.3007	13.82 mPa·s	11.16 mPa·s	9.319 mPa·s	–	–	–
101 kPa, x1 = 0.4	21.4 mPa·s	–	–	–	9.25 mPa·s	–
101 kPa, x1 = 0.4006	21 mPa·s	16.91 mPa·s	13.99 mPa·s	–	–	–
101 kPa, x1 = 0.4977	29.42 mPa·s	23.41 mPa·s	19.16 mPa·s	–	–	–
101 kPa, x1 = 0.6	41.4 mPa·s	–	25 mPa·s	–	16.2 mPa·s	–
101 kPa, x1 = 0.6002	38.85 mPa·s	30.89 mPa·s	25.12 mPa·s	–	–	–
101 kPa, x1 = 0.6982	47.66 mPa·s	38.2 mPa·s	30.3 mPa·s	–	–	–
101 kPa, x1 = 0.7993	56.65 mPa·s	44.81 mPa·s	36.18 mPa·s	–	–	–
101 kPa, x1 = 0.8	60.5 mPa·s	–	36.9 mPa·s	–	23.8 mPa·s	–
101 kPa, x1 = 0.8969	63.9 mPa·s	48.65 mPa·s	–	–	–	–
101 kPa, x1 = 0.9	68.4 mPa·s	–	40.3 mPa·s	–	27.1 mPa·s	–
101.3 kPa, x1 = 0.7917	–	–	–	29.65 mPa·s	–	–
101.3 kPa, x2 = 0.4531	33.95 mPa·s	–	–	–	–	–
101.3 kPa, x2 = 0.6513	18.65 mPa·s	–	–	–	–	–
